pIC50: −log10 of the molar value. Converted amounts (≈) assume the structure as drawn.
What was measured:
[1] = Inhibition of chitin synthase (unknown origin); design: species or system Fungi
Aspergillus flavus [2] = assay: Antifungal activity against Aspergillus flavus ATCC 16870 assessed as disruption of fungal wall by measuring fungal growth incubated for 24 hrs in the presence of sorbitol; type: functional
Aspergillus fumigatus [3] = assay: Antifungal activity against Aspergillus fumigatus GIMCC 3.19 assessed as disruption of fungal wall by measuring fungal growth incubated for 24 hrs in the presence of sorbitol; type: functional
Cryptococcus neoformans [4] = assay: Antifungal activity against Cryptococcus neoformans ATCC 208821 assessed as disruption of fungal wall by measuring fungal growth incubated for 24 hrs in the presence of sorbitol; type: functional
Candida albicans [5] = assay: Antifungal activity against fluconazole-resistant Candida albicans ATCC 76615R assessed as fungal growth inhibition; type: functional
Candida albicans [6] = assay: Antifungal activity against micafungin-resistant Candida albicans ATCC 76615R assessed as fungal growth inhibition; type: functional
Cryptococcus neoformans [7] = assay: Antifungal activity against fluconazole-resistant Cryptococcus neoformans ATCC 208821R assessed as fungal growth inhibition; type: functional
Aspergillus flavus [8] = assay: (§1) Synergistic antifungal activity against Aspergillus flavus ATCC 16870 assessed as fungal growth inhibition incubated for 24 hrs in the presence of fluconazole by broth dilution based checkerboard method; type: functional
Candida albicans [9] = assay: (§2) Synergistic antifungal activity against Candida albicans ATCC 76615 assessed as fungal growth inhibition incubated for 24 hrs in the presence of fluconazole by broth dilution based checkerboard method; type: functional
Candida albicans [10] = assay: Antifungal activity against Candida albicans ATCC 76615 assessed as disruption of fungal wall by measuring fungal growth incubated for 24 hrs in the presence of sorbitol; type: functional
Aspergillus fumigatus [11] = assay: Antifungal activity against Aspergillus fumigatus GIMCC 3.19 assessed as fungal growth inhibition incubated for 24 hrs by CLSI protocol based broth microdilution method; type: functional
Candida albicans [12] = assay: Antifungal activity against Candida albicans ATCC 76615 assessed as fungal growth inhibition incubated for 24 hrs by CLSI protocol based broth microdilution method; type: functional
Cryptococcus neoformans [13] = assay: Synergistic antifungal activity against Cryptococcus neoformans ATCC 208821 assessed as fractional inhibitory concentration index incubated for 24 hrs in the presence of fluconazole by broth dilution based checkerboard method; type: functional
Candida albicans [14] = assay: Synergistic antifungal activity against Candida albicans ATCC 76615 assessed as fractional inhibitory concentration index incubated for 24 hrs in the presence of fluconazole by broth dilution based checkerboard method; type: functional
Cryptococcus neoformans [15] = assay: Antifungal activity against Cryptococcus neoformans ATCC 208821 assessed as fungal growth inhibition incubated for 24 hrs by CLSI protocol based broth microdilution method; type: functional
Aspergillus fumigatus [16] = assay: (§3) Synergistic antifungal activity against Aspergillus fumigatus GIMCC 3.19 assessed as fungal growth inhibition incubated for 24 hrs in the presence of fluconazole by broth dilution based checkerboard method; type: functional
[17] = Inhibition of Candida tropicalis ATCC 750 chitin synthase using UDP-GlcNAc as substrate incubated for 1 hrs by absorbance based assay
Aspergillus flavus [18] = assay: Antifungal activity against Aspergillus flavus ATCC 16870 assessed as fungal growth inhibition incubated for 24 hrs by CLSI protocol based broth microdilution method; type: functional
Cryptococcus neoformans [19] = assay: (§4) Synergistic antifungal activity against Cryptococcus neoformans ATCC 208821 assessed as fungal growth inhibition incubated for 24 hrs in the presence of fluconazole by broth dilution based checkerboard method; type: functional
Aspergillus flavus [20] = assay: Synergistic antifungal activity against Aspergillus flavus ATCC 16870 assessed as fractional inhibitory concentration index incubated for 24 hrs in the presence of fluconazole by broth dilution based checkerboard method; type: functional
[21] = Selectivity ratio of MIC for antifungal activity against Candida albicans ATCC 76615 assessed as disruption of fungal wall by measuring fungal growth incubated for 24 hrs in the presence of sorbitol to MIC for antifungal activity against Candida albicans ATCC 76615 assessed as fungal growth inhibition; type: functional
Candida tropicalis = assay: Inhibition of Candida tropicalis ATCC 750 chitin synthase using UDP-GlcNAc as substrate at 300 ug/ml incubated for 1 hrs by absorbance based assay relative to control; conditions: dose 300.0 µg/ml
Aspergillus fumigatus [22] = assay: Synergistic antifungal activity against Aspergillus fumigatus GIMCC 3.19 assessed as fractional inhibitory concentration index incubated for 24 hrs in the presence of fluconazole by broth dilution based checkerboard method; type: functional
Cryptococcus neoformans [23] = assay: as §4, with “4-(6-methoxy-2-oxo-1,2-dihydrospiro[benzo[d][1,3]oxazine-4,4'-piperidin]-1'-yl)-N-(4-methoxyphenyl)-4-oxobut-2-enamide” for “fluconazole”; type: functional
Aspergillus fumigatus [24] = assay: as §3, with “4-(6-methoxy-2-oxo-1,2-dihydrospiro[benzo[d][1,3]oxazine-4,4'-piperidin]-1'-yl)-4-oxo-N-phenylbut-2-enamide” for “fluconazole”; type: functional
Aspergillus flavus [25] = assay: as §1, with “N-(2-chlorophenyl)-4-(6-methoxy-2-oxo-1,2-dihydrospiro[benzo[d][1,3]oxazine-4,4'-piperidin]-1'-yl)-4-oxobut-2-enamide” for “fluconazole”; type: functional
Aspergillus flavus [26] = assay: as §1, with “N-(4-bromophenyl)-4-(6-methoxy-2-oxo-1,2-dihydrospiro[benzo[d][1,3]oxazine-4,4'-piperidin]-1'-yl)-4-oxobut-2-enamide” for “fluconazole”; type: functional
Aspergillus fumigatus [27] = assay: as §3, with “N-(2-chlorophenyl)-4-(6-methoxy-2-oxo-1,2-dihydrospiro[benzo[d][1,3]oxazine-4,4'-piperidin]-1'-yl)-4-oxobut-2-enamide” for “fluconazole”; type: functional
Aspergillus flavus [28] = assay: as §1, with “4-(6-methoxy-2-oxo-1,2-dihydrospiro[benzo[d][1,3]oxazine-4,4'-piperidin]-1'-yl)-N-(2-methoxy-4-nitrophenyl)-4-oxobut-2-enamide” for “fluconazole”; type: functional
Cryptococcus neoformans [29] = assay: as §4, with “4-(6-methoxy-2-oxo-1,2-dihydrospiro[benzo[d][1,3]oxazine-4,4'-piperidin]-1'-yl)-4-oxo-N-phenylbut-2-enamide” for “fluconazole”; type: functional
Candida albicans [30] = assay: as §2, with “4-(6-methoxy-2-oxo-1,2-dihydrospiro[benzo[d][1,3]oxazine-4,4'-piperidin]-1'-yl)-N-(2-methoxy-4-nitrophenyl)-4-oxobut-2-enamide” for “fluconazole”; type: functional
Aspergillus fumigatus [31] = assay: as §3, with “N-(3-chloro-4-fluorophenyl)-4-(6-methoxy-2-oxo-1,2-dihydrospiro[benzo[d][1,3]oxazine-4,4'-piperidin]-1'-yl)-4-oxobut-2-enamide” for “fluconazole”; type: functional
Aspergillus fumigatus [32] = assay: as §3, with “N-(4-bromophenyl)-4-(6-methoxy-2-oxo-1,2-dihydrospiro[benzo[d][1,3]oxazine-4,4'-piperidin]-1'-yl)-4-oxobut-2-enamide” for “fluconazole”; type: functional
Aspergillus fumigatus [33] = assay: as §3, with “4-(6-methoxy-2-oxo-1,2-dihydrospiro[benzo[d][1,3]oxazine-4,4'-piperidin]-1'-yl)-N-(4-methoxyphenyl)-4-oxobut-2-enamide” for “fluconazole”; type: functional
Candida albicans [34] = assay: as §2, with “N-(3-chloro-4-fluorophenyl)-4-(6-methoxy-2-oxo-1,2-dihydrospiro[benzo[d][1,3]oxazine-4,4'-piperidin]-1'-yl)-4-oxobut-2-enamide” for “fluconazole”; type: functional
Aspergillus flavus [35] = assay: Synergistic antifungal activity against Aspergillus flavus ATCC 16870 assessed as fungal growth inhibition incubated for 24 hrs in the presence of 4-(6-methoxy-2-oxo-1,2-dihydrospiro[benzo[d][1,3]oxazine-4,4'-piperidin]-1'-yl)-4-oxo-N-phenylbut-2-enamide by broth dilution based checkerboard method; type: functional
Candida albicans [36] = assay: as §2, with “N-(4-bromophenyl)-4-(6-methoxy-2-oxo-1,2-dihydrospiro[benzo[d][1,3]oxazine-4,4'-piperidin]-1'-yl)-4-oxobut-2-enamide” for “fluconazole”; type: functional
Aspergillus fumigatus [37] = assay: as §3, with “4-(6-methoxy-2-oxo-1,2-dihydrospiro[benzo[d][1,3]oxazine-4,4'-piperidin]-1'-yl)-N-(2-methoxy-4-nitrophenyl)-4-oxobut-2-enamide” for “fluconazole”; type: functional
Cryptococcus neoformans [38] = assay: as §4, with “N-(4-bromophenyl)-4-(6-methoxy-2-oxo-1,2-dihydrospiro[benzo[d][1,3]oxazine-4,4'-piperidin]-1'-yl)-4-oxobut-2-enamide” for “fluconazole”; type: functional
Cryptococcus neoformans [39] = assay: as §4, with “4-(6-methoxy-2-oxo-1,2-dihydrospiro[benzo[d][1,3]oxazine-4,4'-piperidin]-1'-yl)-N-(2-methoxy-4-nitrophenyl)-4-oxobut-2-enamide” for “fluconazole”; type: functional
Aspergillus flavus [40] = assay: as §1, with “N-(3-chloro-4-fluorophenyl)-4-(6-methoxy-2-oxo-1,2-dihydrospiro[benzo[d][1,3]oxazine-4,4'-piperidin]-1'-yl)-4-oxobut-2-enamide” for “fluconazole”; type: functional
Cryptococcus neoformans [41] = assay: as §4, with “N-(3-chloro-4-fluorophenyl)-4-(6-methoxy-2-oxo-1,2-dihydrospiro[benzo[d][1,3]oxazine-4,4'-piperidin]-1'-yl)-4-oxobut-2-enamide” for “fluconazole”; type: functional
Aspergillus flavus [42] = assay: as §1, with “4-(6-methoxy-2-oxo-1,2-dihydrospiro[benzo[d][1,3]oxazine-4,4'-piperidin]-1'-yl)-N-(4-methoxyphenyl)-4-oxobut-2-enamide” for “fluconazole”; type: functional
Candida albicans [43] = assay: as §2, with “N-(2-chlorophenyl)-4-(6-methoxy-2-oxo-1,2-dihydrospiro[benzo[d][1,3]oxazine-4,4'-piperidin]-1'-yl)-4-oxobut-2-enamide” for “fluconazole”; type: functional
Candida albicans [44] = assay: as §2, with “4-(6-methoxy-2-oxo-1,2-dihydrospiro[benzo[d][1,3]oxazine-4,4'-piperidin]-1'-yl)-N-(4-methoxyphenyl)-4-oxobut-2-enamide” for “fluconazole”; type: functional
Candida albicans [45] = assay: Synergistic antifungal activity against Candida albicans ATCC 76615 assessed as fungal growth inhibition incubated for 24 hrs in the presence of 4-(6-methoxy-2-oxo-1,2-dihydrospiro[benzo[d][1,3]oxazine-4,4'-piperidin]-1'-yl)-4-oxo-N-phenylbut-2-enamide by broth dilution based checkerboard method; type: functional
Cryptococcus neoformans [46] = assay: as §4, with “N-(2-chlorophenyl)-4-(6-methoxy-2-oxo-1,2-dihydrospiro[benzo[d][1,3]oxazine-4,4'-piperidin]-1'-yl)-4-oxobut-2-enamide” for “fluconazole”; type: functional

With `Cc1cccc(NC(=O)/C=C/C(=O)NC2Cc3ccccc3NC2=O)c1` (stereo not given) the pIC50 [1] was 4.05.
`COc1ccc2c(c1)C1(CCN(C(=O)/C=C/C(=O)Nc3ccc(Br)cc3)CC1)OC(=O)N2` showed an MIC (Aspergillus flavus [2]) of 256 µg/mL, an MIC (Aspergillus fumigatus [3]) of 512 µg/mL and an MIC (Cryptococcus neoformans [4]) of 256 µg/mL. The MIC (Candida albicans [5]) was 32 µg/mL (≈ 64 µM), the MIC (Candida albicans [6]) was 32 µg/mL (≈ 64 µM) and the MIC (Cryptococcus neoformans [7]) was 53.3 µg/mL (≈ 107 µM). It also gave an MIC (Aspergillus flavus [8]) of 53.3 µg/mL, an MIC (Candida albicans [9]) of 16 µg/mL and an MIC (Candida albicans [10]) of 256 µg/mL. The MIC (Aspergillus fumigatus [11]) was 64 µg/mL (≈ 128 µM), the MIC (Candida albicans [12]) was 26.7 µg/mL (≈ 53.3 µM) and the “fractional inhibitory concentration index (FICI)” value (Cryptococcus neoformans [13]) was 1. The “fractional inhibitory concentration index (FICI)” value (Candida albicans [14]) was 0.85, the MIC (Cryptococcus neoformans [15]) was 64 µg/mL (≈ 128 µM) and the MIC (Aspergillus fumigatus [16]) was 32 µg/mL. The pIC50 [17] was 3.85, the MIC (Aspergillus flavus [18]) was 32 µg/mL (≈ 64 µM) and the MIC (Cryptococcus neoformans [19]) was 32 µg/mL. For the same molecule, the “fractional inhibitory concentration index (FICI)” value (Aspergillus flavus [20]) was 3.67, the Ratio [21] was 8 and the inhibition (Candida tropicalis) was 83%. For the same molecule, the “fractional inhibitory concentration index (FICI)” value (Aspergillus fumigatus [22]) was 1.25.
For `OC(Cn1cncn1)(Cn1cncn1)c1ccc(F)cc1F` [FLUCONAZOLE], the MIC (Cryptococcus neoformans [23]) was 16 µg/mL, the MIC (Aspergillus fumigatus [24]) was 4 µg/mL and the MIC (Aspergillus flavus [25]) was 16 µg/mL. For the same molecule, the MIC (Aspergillus flavus [26]) was 32 µg/mL, the MIC (Aspergillus fumigatus [27]) was 16 µg/mL and the MIC (Aspergillus flavus [28]) was 16 µg/mL. It also gave an MIC (Cryptococcus neoformans [29]) of 16 µg/mL, an MIC (Candida albicans [30]) of 16 µg/mL and an MIC (Candida albicans [5]) of 256 µg/mL (≈ 836 µM). It also gave an MIC (Aspergillus fumigatus [31]) of 4 µg/mL, an MIC (Aspergillus fumigatus [32]) of 16 µg/mL and an MIC (Aspergillus fumigatus [33]) of 16 µg/mL. For the same molecule, the MIC (Candida albicans [34]) was 16 µg/mL, the MIC (Aspergillus flavus [35]) was 8 µg/mL and the MIC (Cryptococcus neoformans [7]) was 256 µg/mL (≈ 836 µM). For the same molecule, the MIC (Candida albicans [36]) was 4 µg/mL, the MIC (Aspergillus fumigatus [37]) was 16 µg/mL and the MIC (Cryptococcus neoformans [38]) was 16 µg/mL. For the same molecule, the MIC (Cryptococcus neoformans [39]) was 16 µg/mL, the MIC (Aspergillus fumigatus [11]) was 16 µg/mL (≈ 52.2 µM) and the MIC (Aspergillus flavus [40]) was 16 µg/mL. For the same molecule, the MIC (Candida albicans [12]) was 16 µg/mL (≈ 52.2 µM), the MIC (Cryptococcus neoformans [15]) was 32 µg/mL (≈ 104 µM) and the MIC (Aspergillus flavus [18]) was 16 µg/mL (≈ 52.2 µM). It also gave an MIC (Cryptococcus neoformans [41]) of 4 µg/mL, an MIC (Aspergillus flavus [42]) of 16 µg/mL and an MIC (Candida albicans [43]) of 4 µg/mL. For the same molecule, the MIC (Candida albicans [44]) was 16 µg/mL, the MIC (Candida albicans [45]) was 8 µg/mL and the MIC (Cryptococcus neoformans [46]) was 4 µg/mL.
With `COc1cc(Br)c(NC(=O)/C=C/C(=O)N2CCC3(CC2)OC(=O)Nc2ccc(OC)cc23)c(Br)c1` the MIC (Cryptococcus neoformans [4]) was 512 µg/mL, the MIC (Candida albicans [5]) was 64 µg/mL (≈ 105 µM) and the MIC (Candida albicans [6]) was 64 µg/mL (≈ 105 µM). It also gave an MIC (Cryptococcus neoformans [7]) of 64 µg/mL (≈ 105 µM), an MIC (Candida albicans [10]) of 512 µg/mL and an MIC (Aspergillus fumigatus [11]) of 128 µg/mL (≈ 210 µM). It also gave an MIC (Candida albicans [12]) of 64 µg/mL (≈ 105 µM), an MIC (Cryptococcus neoformans [15]) of 64 µg/mL (≈ 105 µM) and a pIC50 [17] of 3.96. The MIC (Aspergillus flavus [18]) was 256 µg/mL (≈ 420 µM), the Ratio [21] was 8 and the inhibition (Candida tropicalis) was 72%.

From ChEMBL document CHEMBL5331050, “Spiro[benzoxazine-piperidin]-one derivatives as chitin synthase inhibitors and antifungal agents: Design, synthesis and biological evaluation” (Eur J Med Chem, 2022)
